Results on 19 compounds are retold here after patent US9062041B2 (Bayer Intellectual Property GmbH, priority 2011, dated 2015).

Holding throughout (assay type): cell-based
Assay [1] has as its target EP2 subtype of the human PGE2 receptor (Homo sapiens, UniProt P43116). The assay is described as follows: cAMP antagonism test on the human EP2 receptor (HTRF cAMP detection). To be noted: hEP2 receptor, read-out: Antagonism hEP2 IC50. In short, it runs like this:
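Read-out is a competitive HTRF for cAMP: lysate cAMP displaces cAMP-d2 from Eu cryptate-labelled antibody, and antagonism raises the 665/620 nm ratio. Compound (0.8 nM–16.5 μM) added to EP2 cells 20 min at RT before 60 min PGE2 challenge (3× stock 1.5 nM) with IBMX, followed by 20 min lysis.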
(Time-resolved FRET reads energy transfer from a long-lived donor to a nearby acceptor.)

The target of assay [2] is EP4 subtype of the human PGE2 receptor (Homo sapiens, UniProt P35408). The assay is described as follows: cAMP antagonism test on the human EP4 receptor (HTRF cAMP detection). To be noted: selectivity towards hEP4, IC50 measured by cAMP antagonism test. In short, it runs like this:
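Competitive HTRF cAMP read-out (cAMP-d2 vs Eu-cryptate anti-cAMP antibody, 665/620 nm ratio) on lysed human EP4 cells. Compound (0.8 nM–16.5 μM) applied 20 min at RT before 60 min PGE2 challenge (3× solution 0.3 nM, IBMX present); 20 min lysis precedes reading.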

For the next assay, the target named is T1, human PGD receptor (Homo sapiens, UniProt Q13258).
T1 sequence (Q13258 1-359): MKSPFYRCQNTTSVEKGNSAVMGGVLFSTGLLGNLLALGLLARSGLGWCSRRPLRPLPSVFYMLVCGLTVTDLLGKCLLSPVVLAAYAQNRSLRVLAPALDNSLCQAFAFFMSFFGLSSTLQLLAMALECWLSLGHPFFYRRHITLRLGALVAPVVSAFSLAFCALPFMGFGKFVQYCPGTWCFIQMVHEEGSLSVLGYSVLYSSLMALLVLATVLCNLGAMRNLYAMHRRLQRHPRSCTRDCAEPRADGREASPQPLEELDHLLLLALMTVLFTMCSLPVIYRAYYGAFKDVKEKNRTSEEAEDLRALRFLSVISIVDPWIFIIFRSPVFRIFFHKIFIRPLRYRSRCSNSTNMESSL
As to the kind of experiment: cAMP antagonism test on the human prostaglandin D receptor (HTRF cAMP detection). To be noted: selectivity towards hDP, IC50 measured by cAMP antagonism test. In short, it runs like this:
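HTRF competition read-out (665/620 nm ratio ×10000), where higher FRET means less cAMP, i.e. antagonism. Compounds (0.8 nM–16.5 μM) were preincubated 20 min at RT with cells and cAMP-d2, PGD2 (3× solution, 6 nM) in IBMX-containing PBS added for 30 min at RT, then cells lysed 20 min.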

By IC50 is commonly meant the point on the concentration scale where inhibition reaches its midpoint.

The structures appear in SMILES notation.

Chain of EP2 subtype of the human PGE2 receptor (P43116 whole entry): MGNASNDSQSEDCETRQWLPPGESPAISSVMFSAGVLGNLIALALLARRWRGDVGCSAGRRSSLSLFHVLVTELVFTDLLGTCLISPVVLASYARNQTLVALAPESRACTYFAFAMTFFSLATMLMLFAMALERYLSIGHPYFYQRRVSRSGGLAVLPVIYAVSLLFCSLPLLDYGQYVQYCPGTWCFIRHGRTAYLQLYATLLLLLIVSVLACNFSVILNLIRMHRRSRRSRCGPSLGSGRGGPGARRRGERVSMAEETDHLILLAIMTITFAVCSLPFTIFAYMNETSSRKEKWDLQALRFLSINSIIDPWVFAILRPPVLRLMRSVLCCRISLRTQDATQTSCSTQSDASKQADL
Chain of EP4 subtype of the human PGE2 receptor (P35408 whole entry): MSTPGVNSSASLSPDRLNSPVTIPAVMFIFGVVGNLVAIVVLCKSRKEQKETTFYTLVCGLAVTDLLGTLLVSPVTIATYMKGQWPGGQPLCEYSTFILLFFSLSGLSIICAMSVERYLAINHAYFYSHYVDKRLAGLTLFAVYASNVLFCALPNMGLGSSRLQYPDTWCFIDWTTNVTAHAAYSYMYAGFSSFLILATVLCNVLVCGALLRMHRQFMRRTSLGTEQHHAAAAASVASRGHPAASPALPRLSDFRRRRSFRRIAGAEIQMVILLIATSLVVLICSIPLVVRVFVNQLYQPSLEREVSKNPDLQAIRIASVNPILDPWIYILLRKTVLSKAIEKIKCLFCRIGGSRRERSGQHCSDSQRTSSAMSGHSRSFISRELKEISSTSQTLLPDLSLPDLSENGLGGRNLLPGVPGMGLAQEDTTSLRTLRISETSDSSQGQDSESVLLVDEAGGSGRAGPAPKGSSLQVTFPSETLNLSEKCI

Consider `COCCNC(=O)c1ccc2nn(CC3CN(C(=O)c4ccc(SC(F)(F)F)cc4)C3)cc2c1OC` [Example 215, 4-methoxy-N-(2-methoxyethyl)-2-[(1-{4-[(trifluoromethyl)sulphanyl]benzoyl}azetidin-3-yl)methyl]-2H-indazol-5-carboxamide], for which, in assay [1], the half-inhibitory concentration (IC50) came to 39 nM. Besides, the “Selectivity hEP2/hEP4” value in assay [2] is listed as “xxx (xxx > 100)”. The “Selectivity hEP2/hDP” value on human PGD receptor was “xxx (xxx > 100)”.
In the case of `COCCNC(=O)c1ccc2nn(C[C@H]3CCN(C(=O)c4ccc(-c5ccc(F)cc5)cc4)C3)cc2c1C` [Example 223, 2-({(S)-1-[(4′-fluorobiphenyl-4-yl)carbonyl]pyrrolidin-3-yl}methyl)-N-(2-methoxyethyl)-4-methyl-2H-indazol-5-carboxamide], the IC50 in assay [1] came to 20 nM. In assay [2], the “Selectivity hEP2/hEP4” value is given as “xxx (xxx > 100)”. The “Selectivity hEP2/hDP” value at human PGD receptor is “xxx (xxx > 100)”.
As to `Cc1c(C(=O)NCC(F)(F)F)ccc2nn(CC3CCN(C(=O)c4nc(-c5ccccc5)no4)CC3)cc12` [Example 305, 4-methyl-2-({1-[(3-phenyl-1,2,4-oxadiazol-5-yl)carbonyl]piperidin-4-yl}methyl)-N-(2,2,2-trifluoroethyl)-2H-indazol-5-carboxamide], the 50% inhibitory concentration (IC50) in assay [1] was 301 nM. Further, in assay [2], the “Selectivity hEP2/hEP4” value is listed as “xx (xx: 10-100)”. Further, on human PGD receptor, the “Selectivity hEP2/hDP” value is “xx (xx: 10-100)”.
For `Cc1c(C(=O)NCC(F)(F)F)ccc2nn(CC3CN(C(=O)c4ccc(OC(F)(F)F)cc4)C3)cc12` [Example 130, 4-methyl-N-(2,2,2-trifluoroethyl)-2-({1-[4-(trifluoromethoxy)benzoyl]azetidin-3-yl}methyl)-2H-indazol-5-carboxamide], the IC50 in assay [1] was 241 nM. Besides, the “Selectivity hEP2/hEP4” value in assay [2] is given as “xx (xx: 10-100)”. The “Selectivity hEP2/hDP” value on human PGD receptor is reported as “xx (xx: 10-100)”.
On to `COCCNC(=O)c1ccc2nn(CC3CN(C(=O)c4ccc(OC(F)(F)F)cc4)C3)cc2c1OC` [Example 254, 4-methoxy-N-(2-methoxyethyl)-2-({1-[4-(trifluoromethoxy)benzoyl]azetidin-3-yl}methyl)-2H-indazol-5-carboxamide], for which the IC50 in assay [1] came to 55.2 nM. For the same compound, in assay [2], the “Selectivity hEP2/hEP4” value is listed as “xxx (xxx > 100)”. In addition, the “Selectivity hEP2/hDP” value at human PGD receptor is on record as “xxx (xxx > 100)”.
On to `COCCNC(=O)c1ccc2nn(CC3CCN(C(=O)c4cnc(-c5ccccc5)s4)CC3)cc2c1C` [Example 337, N-(2-methoxyethyl)-4-methyl-2-({1-[(2-phenylthiazol-5-yl)carbonyl]piperidin-4-yl}methyl)-2H-indazol-5-carboxamide], for which the IC50 in assay [1] was 18.1 nM. Also, the “Selectivity hEP2/hEP4” value in assay [2] is on record as “xxx (xxx > 100)”. Further, the “Selectivity hEP2/hDP” value on human PGD receptor is “xxx (xxx > 100)”.
On to `COCCNC(=O)c1ccc2nn(CC3CCN(C(=O)c4ccc(-c5ccccc5OC(F)(F)F)cc4F)CC3)cc2c1C` [Example 46, 2-[(1-{[3-fluoro-2′-(trifluoromethoxy)-biphenyl-4-yl]-carbonyl}piperidin-4-yl)methyl]-N-(2-methoxyethyl)-4-methyl-2H-indazol-5-carboxamide], for which the IC50 in assay [1] is 4.91 nM. In assay [2], the “Selectivity hEP2/hEP4” value is reported as “xxx (xxx > 100)”. Besides, at human PGD receptor, the “Selectivity hEP2/hDP” value is given as “xxx (xxx > 100)”.
Take `Cc1c(C(=O)NCCN2CCC(F)(F)C2)ccc2nn(CC3CN(C(=O)c4ccc(Cl)cc4)C3)cc12` [Example 126, 2-{[1-(4-chlorobenzoyl)azetidin-3-yl]methyl}-N-[2-(3,3-difluoropyrrolidin-1-yl)ethyl]-4-methyl-2H-indazol-5-carboxamide]: in assay [1], the half-inhibitory concentration (IC50) came out at 21.2 nM. The “Selectivity hEP2/hEP4” value in assay [2] is given as “xxx (xxx > 100)”. Moreover, at human PGD receptor, the “Selectivity hEP2/hDP” value was “xxx (xxx > 100)”.
With `Cc1c(C(=O)NCCN2CCOCC2)ccc2nn(CC3CCN(C(=O)c4ccc(C(F)(F)F)cc4F)CC3)cc12` [Example 58, 2-({1-[2-fluoro-4-(trifluoromethyl)benzoyl]piperidin-4-yl}methyl)-4-methyl-N-(2-morpholinoethyl)-2H-indazol-5-carboxamide], the IC50 in assay [1] was determined as 1080 nM. Also, in assay [2], the “Selectivity hEP2/hEP4” value is given as “xx (xx: 10-100)”. Besides, at human PGD receptor, the “Selectivity hEP2/hDP” value is reported as “xx (xx: 10-100)”.
In the case of `COCCNC(=O)c1ccc2nn(CC3CCN(C(=O)c4ccc(-c5ccc(Cl)cn5)cc4)CC3)cc2c1C` [Example 368, 2-({1-[4-(5-chloropyridin-2-yl)benzoyl]piperidin-4-yl}methyl)-N-(2-methoxy-ethyl)-4-methyl-2H-indazol-5-carboxamide], the IC50 in assay [1] came to 12 nM. For the same compound, in assay [2], the “Selectivity hEP2/hEP4” value is on record as “xxx (xxx > 100)”. Further, on human PGD receptor, the “Selectivity hEP2/hDP” value was “xxx (xxx > 100)”.
In the case of `Cc1ccc(-c2ccc(C(=O)N3CCC(Cn4cc5c(C)c(C(=O)NCC(F)(F)F)ccc5n4)CC3)cc2)cn1` [Example 319, 4-methyl-2-({1-[4-(6-methylpyridin-3-yl)benzoyl]piperidin-4-yl}methyl)-N-(2,2,2-trifluoroethyl)-2H-indazol-5-carboxamide], the half-maximal inhibitory concentration (IC50) in assay [1] was 315 nM. The “Selectivity hEP2/hEP4” value in assay [2] was “xx (xx: 10-100)”. In addition, the “Selectivity hEP2/hDP” value at human PGD receptor is reported as “xx (xx: 10-100)”.
With `Cc1cc2nn(CC3CN(C(=O)c4ccc(Cl)cc4)C3)cc2cc1C(=O)NCCOCC1CC1` [Example 198, 2-{[1-(4-chlorobenzoyl)azetidin-3-yl]methyl}-N-[2-(cyclopropylmethoxy)ethyl]-6-methyl-2H-indazol-5-carboxamide], in assay [1], the IC50 was 153 nM. Besides, the “Selectivity hEP2/hEP4” value in assay [2] was “xxx (xxx > 100)”. The “Selectivity hEP2/hDP” value at human PGD receptor is reported as “xxx (xxx > 100)”.
For `CCOCCNC(=O)c1ccc2nn(CC3CN(C(=O)c4ccc(Cl)cc4)C3)cc2c1OC` [Example 259, 2-{[1-(4-chlorobenzoyl)azetidin-3-yl]methyl}-N-(2-ethoxyethyl)-4-methoxy-2H-indazol-5-carboxamide], in assay [1], the IC50 is 25.6 nM. Further, the “Selectivity hEP2/hEP4” value in assay [2] is reported as “xxx (xxx > 100)”. Also, at human PGD receptor, the “Selectivity hEP2/hDP” value was “xxx (xxx > 100)”.
For `Cc1cc2nn(CC3CN(C(=O)c4ccc(Oc5ccc(F)cc5)cc4)C3)cc2cc1C(=O)NCCSC(F)(F)F` [Example 199, 2-({1-[4-(4-fluorophenoxy)benzoyl]azetidin-3-yl}methyl)-6-methyl-N-{2-[(trifluoromethyl)sulphanyl]ethyl}-2H-indazol-5-carboxamide], in assay [1], the IC50 was 97.1 nM. For the same compound, the “Selectivity hEP2/hEP4” value in assay [2] is reported as “xxx (xxx > 100)”. Besides, the “Selectivity hEP2/hDP” value on human PGD receptor was “xxx (xxx > 100)”.
Consider `COCCNC(=O)c1ccc2nn(CC3CCN(C(=O)c4ccc(-c5cc(F)cc(F)c5)c(C)c4)CC3)cc2c1C` [Example 391, 2-({1-[(3′,5′-difluoro-2-methylbiphenyl-4-yl)carbonyl]piperidin-4-yl}methyl)-N-(2-methoxyethyl)-4-methyl-2H-indazol-5-carboxamide], for which, in assay [1], the 50% inhibitory concentration (IC50) was 6.07 nM. The “Selectivity hEP2/hEP4” value in assay [2] is on record as “xxx (xxx > 100)”. Besides, the “Selectivity hEP2/hDP” value on human PGD receptor is recorded as “xxx (xxx > 100)”.
Consider `Cc1ccc(C(=O)N2CCC(Cn3cc4c(C)c(C(=O)NCCOC(C)C)ccc4n3)CC2)cc1` [Example 97, N-(2-isopropoxy-ethyl)-4-methyl-2-{[1-(4-methyl-benzoyl)piperidin-4-yl]methyl}-2H-indazol-5-carboxamide], for which, in assay [1], the half-maximal inhibitory concentration (IC50) was 12.7 nM. In assay [2], the “Selectivity hEP2/hEP4” value is given as “xxx (xxx > 100)”. Also, the “Selectivity hEP2/hDP” value at human PGD receptor is recorded as “xxx (xxx > 100)”.
Take `COCCNC(=O)c1cc2cn(CC3CN(C(=O)c4ccc(Oc5ccc(C(F)(F)F)cc5)cc4)C3)nc2cc1C` [Example 202, N-(2-methoxyethyl)-6-methyl-2-[(1-{4-[4-(trifluoromethyl)phenoxy]benzoyl}-azetidin-3-yl)methyl]-2H-indazol-5-carboxamide]: in assay [1], the IC50 was 5.06 nM. For the same compound, the “Selectivity hEP2/hEP4” value in assay [2] is “xxx (xxx > 100)”. Moreover, the “Selectivity hEP2/hDP” value at human PGD receptor is on record as “xxx (xxx > 100)”.
In the case of `Cc1c(C(=O)NCC(F)(F)F)ccc2nn(CC3CCN(C(=O)c4ccc(Oc5ccc(F)cc5F)cc4)CC3)cc12` [Example 313, 2-({1-[4-(2,4-difluorophenoxy)benzoyl]piperidin-4-yl}methyl)-4-methyl-N-(2,2,2-trifluoroethyl)-2H-indazol-5-carboxamide], the IC50 in assay [1] stood at 89.4 nM. The “Selectivity hEP2/hEP4” value in assay [2] is listed as “xxx (xxx > 100)”. Further, the “Selectivity hEP2/hDP” value at human PGD receptor was “xxx (xxx > 100)”.
On to `COCCNC(=O)c1ccc2nn(CC3CCN(C(=O)c4ccc(Oc5ccc(F)cc5)cc4)CC3)cc2c1OC(F)F` [Example 226, 4-(difluoromethoxy)-2-({1-[4-(4-fluorophenoxy)benzoyl]piperidin-4-yl}methyl)-N-(2-methoxyethyl)-2H-indazol-5-carboxamide], for which, in assay [1], the concentration for half-maximal inhibition (IC50) is 11.9 nM. In addition, the “Selectivity hEP2/hEP4” value in assay [2] was “xxx (xxx > 100)”. Also, at human PGD receptor, the “Selectivity hEP2/hDP” value is “xxx (xxx > 100)”.
